A word on the IC50: it is the concentration at which inhibition is half-maximal.

This is an account of results in article PMC12469672, “Effects on Oral Squamous Carcinoma Cell Lines and Their Mechanisms of Pyrazole N-Aryl Sulfonate: A Novel Class of Selective Cyclooxygenase-2 Inhibitors” (International Journal of Molecular Sciences, 2025).

Where two headings read alike, the source gives them in different places.

Test [1] relates to SAS cells. Kind of test: CCK-8 proliferation assay, SAS. Format: cell-based. On the procedure:
(§1) The OSCC cell lines CAL-27 (STCC12901P, Servicebio, Wuhan, China) and SAS (CC0706, Cellcook, Guangzhou, China) were cultured in Dulbecco Modified Eagle Medium F12 (DMEM/F12) (G4610-500ML, Servicebio, Wuhan, China) supplemented with 10% fetal bovine serum (FBS) (AB-FBS-DIA1050, ABW, Shanghai, China) and 100 U/mL penicillin-streptomycin-gentamicin solution (G4014-100ML, Servicebio, Wuhan, China). VERO cells were cultured in DMEM (G4524-500ML, Servicebio, Wuhan, China) supplemented with 10% FBS (AB-FBS-DIA1050, ABW, China) and 100 U/mL penicillin–streptomycin–gentamicin solution (G4014-100ML, Servicebio, Wuhan, China). […] were maintained at 37 °C in a humidified 5% CO2 incubator. For experiments, 1 × 10^6 cells were seeded per T-25 culture flask.
(§2) CAL-27, SAS, and VERO cells were seeded in 96-well plates at a density of 5000 cells per well. At specified time intervals, 10 μL of Cell Counting Kit-8 (CCK-8) reagent (K1018, Apexbio, Boston, MA, USA) was added to each well and incubated for 2 h. Absorbance at 450 nm was measured using a microplate reader (Infinite M200 Pro, Tecan Group, Männedorf, Switzerland).
A general note: Formazan colour is commonly taken as a measure of viable cells.

The subject of test [2] is CAL-27 cells. Nature of the test: Hoechst 33342 staining, CAL-27. The class given is cell-based. Conditions: CAL-27, 24 h, working concentrations, vs NC. The method, then: (§3) After 24 h drug treatment at the predefined working concentrations, CAL-27 and SAS cells were dyed with 300 μL Hoechst 33342 staining (C1022, Beyotime, China) in the dark at 37 °C for 10 min. Then, the residual Hoechst 33342 staining was washed 3 times with 1 × phosphate-buffered saline (PBS, G4250-500ML, Servicebio, China). The images were then immediately examined under an inverted fluorescence microscope (CX23, Olympus, Japan).

The test system of a further test is MMP2 mRNA in SAS cells. Nature of the test: RT-qPCR MMP2 mRNA, SAS. Format: cell-based. Conditions: vs control. The method, then:
(§4) Equal amounts of RNA were reverse transcribed into cDNA using the Reverse Transcription Kit (AG11705, Accurate Biology, Guangzhou, China) following the manufacturer’s instructions. Quantitative PCR was performed on a QIAGEN Rotor-GeneQ system (9001862, QIAGEN, Hilden, Germany) with SYBR Green Pro Taq HS Premix II (AG11702, Accurate Biology, China).
(§5) The PCR protocol consisted of initial denaturation at 95 °C for 30 s, followed by 40 cycles of 95 °C for 5 s and 60 °C for 30 s. All reactions were performed in triplicate, with melting curve analysis confirming amplification specificity. The expression of the target genes was normalized to GAPDH, and fold changes were calculated in the manner of the 2^−ΔΔCT .
On the technique in general: In qPCR the cycle at which signal appears reflects the starting amount.

Test [3] has as its system MMP2 mRNA in CAL-27 cells. Nature of the test: RT-qPCR MMP2 mRNA, CAL-27. The class given is cell-based. Particulars: CAL-27, 24 h, vs control. On the procedure:
as §4, §5

For test [4], the system named is SAS cells. Nature of the test: Hoechst 33342 staining, SAS. Particulars: 24 h, working concentrations, vs NC. The class given is cell-based. On the procedure:
as §3

Test [5] relates to SAS cells. Kind of test: Annexin V-FITC/PI flow cytometry apoptosis, SAS. The class given is cell-based. Particulars: 24 h, vs control. On the procedure:
(§6) After 24 h drug treatment at the predefined working concentrations, CAL-27 and SAS cells were trypsinized, centrifuged (200× g, 5 min, RT), and washed twice with 1 mL ice-cold PBS. Cell aliquots ((5–10) × 10^4 cells) were resuspended in 195 μL Annexin V-FITC binding buffer, followed by sequential addition of 5 μL Annexin V-FITC and 10 μL propidium iodide (PI) (BMS500FI-100, Thermo Fisher Scientific, Wien, Austria) with gentle mixing. After 10–20 min of incubation in darkness (20–25 °C) with intermittent resuspension (2–3 times), samples were placed on ice and analyzed within 1 h using a flow cytometer (CytExpert software [Version 2.4.0.28, Beckman Coulter, Brea, CA, USA]). Triplicate independent experiments were performed for statistical analysis.
(In general: A flow cytometer gives signals particle by particle.)

A further test has as its system VERO cells. Nature of the test: CCK-8 cytotoxicity assay, VERO. Format: cell-based, African green monkey. Conditions: Chlorocebus sabaeus; VERO, CCK-8, 24 h. The method, then: as §1, §2
Test [6] concerns CAL-27 cells. Nature of the test: Annexin V-FITC/PI flow cytometry apoptosis, CAL-27. Particulars: CAL-27, 24 h, vs control. The class given is cell-based. The method, then: as §6
The next test concerns COX-2 in SAS cells. Kind of test: ELISA COX-2, SAS. Conditions: working concentrations, vs control (compounds also vs CXB). The class given is cell-based. The method, then: With the aim of determining COX-2 concentrations in OSCC cell lines after treatment at the predefined working concentrations, we used a specialized ELISA kit (F0564-A, FANKEW, Shanghai, China), following the manufacturer’s instructions. Briefly, 40 μL of the sample dilution and 10 μL of the sample (sample final dilution is 5-fold) were added to testing sample wells and incubated for 30 min at 37 °C. After that, discard the liquid and wash the plate using washing buffer. Repeat 5 times, drying by patting. Subsequently, samples were incubated with 50 μL of HRP-conjugate reagent in each well for 30 min at 37 °C. Wash 5 times, then add Chromogen Solution A and B and incubate for 10 min at 37 °C. Lastly, 50 μL of stop solution was added to each well to stop the reaction, and the sample absorbance was measured using a microplate reader at 450 nm after adding stop solution within 15 min.

The test system of test [7] is MMP9 mRNA in CAL-27 cells. Nature of the test: RT-qPCR MMP9 mRNA, CAL-27. The class given is cell-based. Particulars: CAL-27, 24 h, vs control. On the procedure:
as §4, §5

The test system of test [8] is CAL-27 cells. Nature of the test: CCK-8 proliferation assay, CAL-27. The class given is cell-based. Conditions: Homo sapiens. On the procedure: as §1, §2
In another test the test system is COX-2 mRNA in SAS cells. Kind of test: RT-qPCR COX-2 mRNA, SAS. Format: cell-based. Conditions: working concentrations, 24 h, vs control. On the procedure: as §4, §5

Regarding `Cc1ccc(-c2cc(C(F)(F)F)nn2-c2ccc(S(N)(=O)=O)cc2)cc1` [CXB, celecoxib, reference compound], the concentration for half-maximal inhibition (IC50) in the test with SAS cells [1] (24 h, read-out: IC50 (range)) is 53.9 to 61.5 µM; in the test with SAS cells [1] (SAS, CCK-8, read-out: IC50 SAS), 57.6 µM; in the test on VERO cells, 243 µM; in the test with CAL-27 cells [8] (CAL-27, 24 h, read-out: IC50 (range), CAL-27, CCK-8, 24 h, given as a range), 52.4 to 61.9 µM; in the test on CAL-27 cells [8] (CAL-27, CAL-27, CCK-8, read-out: IC50 CAL-27) it was 57 µM. The “apoptotic cells (Hoechst 33342, fluorescence microscopy)” value with CAL-27 cells [2] and in the test on SAS cells [4] was “significant increase” each time. Further, the “MMP2 mRNA expression” value was “markedly suppressed” in the test on MMP2 mRNA in SAS cells and “even lower” in [3]. The “total apoptotic cell population (early and late apoptosis)” value in the test on SAS cells [5] and with CAL-27 cells [6] was “comparable pro-apoptotic efficacy” in each case. Moreover, the “COX-2 level (ELISA)” value with COX-2 in SAS cells is “no marked difference”. Further, in [7], the “MMP9 mRNA expression” value was “even lower”. Also, the “COX-2 mRNA level” value with COX-2 mRNA in SAS cells was “marked upregulation”.
